Results reported in patent US10493077B2, “Fused imidazo-piperidine JAK inhibitor compound” (THERAVANCE BIOPHARMA R&D IP, LLC, priority 2017, dated 2019).

How the values were obtained:
[1] = test system: IL-2 stimulated pSTAT5 in CD4+ T cells; test: Cellular JAK potency assay: inhibition of IL-2 stimulated pSTAT5 in CD4+ T cells; format: cell-based; settings: 0.5 h; CD4+ T cells in human PBMCs, 30 min stimulation; read-out: pIC50, inhibition of IL-2 stimulated pSTAT5 (converted)
Procedure: The potency of the test compound for inhibition of interleukin-2 (IL-2)/anti-CD3 stimulated STAT5 phosphorylation was measured in CD4-positive (CD4+) T cells in human peripheral blood mononuclear cells (PBMCs) isolated from human whole blood (Stanford Blood Center) using flow cytometry. Because IL-2 signals through JAK, this assay provides a measure of JAK cellular potency.
CD4+ T cells were identified using a […] (PE) conjugated anti-CD4 antibody (Clone RPA-T4, BD Biosciences), while an Alexa Fluor 647 conjugated anti-pSTAT5 antibody (pY694, Clone 47, BD Biosciences) was used to detect STAT5 phosphorylation. […]
(2) After cytokine stimulation, cells were fixed with pre warmed fix solution (200 μL; BD Biosciences) for 10 min at 37° C., 5% CO2, washed twice with DPBS buffer (1 mL, Life Technologies), and resuspended in ice cold Perm Buffer III (1000 μL, BD Biosciences) for 30 min at 4° C. […] After incubation, cells were washed twice in FACS buffer before being analyzed using a LSRII flow cytometer (BD Biosciences). To determine the inhibitory potency of the test compound in response to IL-2/anti-CD3, the median fluorescent intensity (MFI) of pSTAT5 was measured in CD4+ T cells. IC50 values were determined from analysis of the inhibition curves of MFI vs compound concentration. Data are expressed as pIC50 (negative decadic logarithm IC50) values.

[2] = Ocular pharmacokinetics in rabbit eyes; format: in vivo; settings: for half-life: rabbit, vitreous, solution formulation in 2% 2-hydroxypropyl-β-cyclodextrin, intravitreal 50 μg/eye
Procedure: The objective of this assay was to determine the pharmacokinetics of a test compound in rabbit ocular tissues.
1-(2-(6-(2-ethyl-5-fluoro-4-hydroxyphenyl)-4-fluoro-1H-indazol-3-yl)-1,4,6,7-tetrahydro-5H-imidazo[4,5-c]pyridin-5-yl)-2-morpholinoethan-1-one (1), prepared in Example 2, was dissolved in 2% 2-hydroxypropyl-β-cyclodextrin to attain a target concentration of 1 mg/mL. Bilateral intravitreal injection (50 μL/eye) of the solution of test compound was administered to New Zealand white rabbits (50 μg/eye). The test compound concentration was measured in ocular tissues: vitreous, aqueous, retina/choroid and iris-ciliary body at pre-determined time points post injection (30 min, 4 h, 1 d, 3 d, 7 d, 14 d). Two rabbits (four eyes) were dosed for each time point.
A suspension formulation was prepared by combining compound 1 of Example 2 (Form 1), with 0.5% hydroxypropyl methylcellulose (HPMC E5)+0.02% Tween 80 in normal saline to attain a target concentration of 5 mg/mL, 20 mg/mL and 80 mg/mL for the 0.25 mg/eye, 1 mg/eye and 4 mg/eye doses respectively. Bilateral intravitreal injection (50 μL/eye) of the suspension of test compound was administered to New Zealand white rabbits. The test compound concentration was measured in ocular tissues as in the solution formulation assay at 30 min, 4 h, 24 h, 72 h, 7 d, 14 d, 28 d, 56 d and 84 d post injection. For the 4 mg/eye dose group, an additional time point at 168 d post injection was also collected. […] The clearance rate is consistent with the solubility of compound 1 in the vehicle and the ocular pharmacokinetic behavior in the solution formulation. […] Therefore, it is plausible that drug exposure is longer than that observed in this study. The drug concentration in plasma was measured and found to be at least 3 orders of magnitude lower than the concentration in vitreous tissue at all three concentrations.
A suspension formulation was prepared by combining compound 1 of Example 5 (Form 2), with 0.5% hydroxypropyl methylcellulose (HPMC E5)+0.02% Tween 80 in normal saline to attain a target concentration of […], 1 mg/mL, 2 mg/mL and 20 mg/mL for the 0.02 mg/eye, 0.05 mg/eye, 0.1 mg/eye and 1 mg/eye doses respectively. Bilateral intravitreal injection (50 μL/eye) of the suspension of test compound was administered to Dutch Belted rabbits. The test compound concentration was measured in vitreous humor, aqueous humor, iris-ciliary body, retina, retinal pigment epithelial/choroidal cells and plasma at 30 min, 7 d, 14 d, 28 d, 42 d and 56 d post injection. […] Therefore, it is plausible that drug exposure is longer than that observed in this study. The drug concentration in plasma was measured and found to be at least 3 orders of magnitude lower than the concentration in vitreous tissue at all three concentrations. The 3 orders of magnitude correspond to a logarithmic scale (ie 1000 on a non-logarithmic scale).

[3] = Lung and plasma pharmacokinetics in mice; format: in vivo, mouse; settings: BALB/c mice, Form 1 suspension 0.1 mg/mL, 50 μL by oral aspiration
Procedure: Plasma and lung concentrations of compound 1 and ratios thereof were determined in the following manner. BALB/c mice from Charles River Laboratories were used in the assay. Compound 1 Form 1 of example 2 was formulated in 0.01% Tween 80 in normal saline (0.9% sodium chloride in water) at a concentration of 0.1 mg/mL as a suspension. 50 μL of the suspension formulation was introduced into the trachea of a mouse by oral aspiration. At various time points (0.083, 1, 4, 24, 48, 72, and 96 hr). Post dosing, blood samples were removed via cardiac puncture and intact lungs were excised from the mice. Blood samples were centrifuged (Eppendorf centrifuge, 5804R) for 4 minutes at approximately 12,000 rpm at 4° C. to collect plasma. Lungs were padded dry, weighed, and homogenized at a dilution of 1:3 in sterile water. Plasma and lung concentrations of compound 1 were determined by LC-MS analysis against analytical standards constructed into a standard curve in the test matrix. […] The lung half-life was calculated at approximately 40 hours. The lung to plasma ratio was determined as the ratio of the lung AUC in μg hr/g to the plasma AUC in μg hr/mL (where AUC is conventionally defined as the area under the curve of test compound concentration vs. time).

SMILES: CCc1cc(O)c(F)cc1-c1cc(F)c2c(-c3nc4c([nH]3)CCN(C(=O)CN3CCOCC3)C4)n[nH]c2c1 [Compound 1, 1-(2-(6-(2-ethyl-5-fluoro-4-hydroxyphenyl)-4-fluoro-1H-indazol-3-yl)-1,4,6,7-tetrahydro-5H-imidazo[4,5-c]pyridin-5-yl)-2-morpholinoethan-1-one]
- IC50 [1]: ~0.02 µM
- ocular exposure at 24 weeks ([2]; Form 1 suspension, intravitreal 4 mg/eye, New Zealand white rabbits): Sustained exposure
- drug concentration in plasma lower than concentration in vitreous tissue ([2]; Form 1 suspension, intravitreal 0.25, 1 and 4 mg/eye, New Zealand white rabbits): at least 3 orders of magnitude
- ocular exposure at 12 weeks (84 d) ([2]; Form 1 suspension, intravitreal, all doses (0.25, 1, 4 mg/eye), New Zealand white rabbits): Robust sustained exposure
- drug concentration in plasma lower than concentration in vitreous tissue ([2]; Form 2 suspension, intravitreal 0.02, 0.05, 0.1 and 1 mg/eye, Dutch Belted rabbits): at least 3 orders of magnitude
- change of drug concentration in vitreous tissue from 30 min to last time point tested ([2]; Form 2 suspension, intravitreal 0.02-1 mg/eye, Dutch Belted rabbits, last time point 28-56 d): very gradual decrease
- half-life ([2]; New Zealand white, 50 μg/eye, New Zealand white rabbits, read-out: terminal half-life, vitreous tissue (converted)): ~48 h
- concentration in plasma versus vitreous tissue ([2]; rabbit eyes, single intravitreal injection (summary of Assay 7)): at least three orders of magnitude lower
- half-life ([2]; New Zealand white rabbits, read-out: half-life of initial decrease in concentration, vitreous tissue (converted)): ~9 h
- lung AUC (0-96 hr) [3]: 360 µg·h/g
- Kp ([3]; mouse, lung and plasma, 5 μg/mouse, read-out: lung to plasma AUC ratio): 1780
- half-life ([3]; mouse, lung, 5 μg/mouse): ~40 h
